# Reference: patent US20260285850A1, “SUBSTITUTED OXAZOLIDINONES AND IMIDAZOLINONES AS HERBICIDES” (FMC CORPORATION, priority 2023, published 2026)
# Legend:
# Type in all cases: in vivo
# kochia (Bassia scoparia) [1] = test: Test A postemergence application, visual injury rating 0-100; conditions: 10 days
# How it was run: (§1)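 Rating: visual, day 10, untreated plants as reference, 0 no effect to 100 full control. Plants were in loam-sand and were treated either preemergence via directed soil spray or postemergence at the one- to two-leaf stage.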
# [2] = test system: ryegrass, Italian (italian ryegrass, Lolium multiflorum); test: as above; conditions: 10 days
# How it was run: as §1
# [3] = test system: galium (catchweed bedstraw, Galium aparine); test: as above; conditions: 10 days
# How it was run: as §1
# [4] = test system: horseweed (Erigeron canadensis); test: as above; conditions: 10 days
# How it was run: as §1
# [5] = test system: ragweed (common ragweed, Ambrosia artemisiifolia); test: as above; conditions: 10 days
# How it was run: as §1
# [6] = test system: wheat (Triticum aestivum); test: as above; conditions: 10 days
# How it was run: as §1
# [7] = test system: palmer (palmer amaranth, palmer pigweed, Amaranthus palmeri); test: as above; conditions: 10 days
# How it was run: as §1
# [8] = test system: blackgrass (Alopecurus myosuroides); test: as above; conditions: 10 days
# How it was run: as §1
# soybean (Glycine max) [9] = test: as above; conditions: 10 days
# How it was run: as §1
# [10] = test system: barnyardgrass (Echinochloa crus-galli); test: as above; conditions: 10 days
# How it was run: as §1
# [11] = test system: green foxtail (Setaria viridis); test: as above; conditions: 10 days
# How it was run: as §1
# corn (Zea mays) [12] = test: as above; conditions: 10 days
# How it was run: as §1
# [13] = test system: oat, wild (wild oat, Avena fatua); test: as above; conditions: 10 days
# How it was run: as §1
# rice (Oryza sativa) = test: Test B flooded paddy test, visual plant response rating 0-100; conditions: 250 g ai/ha, Flood, applied to paddy water, evaluated after 13 days
# How it was run: (§2)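 2-leaf plants; flood 3 cm over soil; compound dosed into paddy water; depth kept constant; greenhouse 13 d; visual scoring vs controls. Dash = no result.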
# [14] = test system: barnyardgrass (Echinochloa crusgalli); test: as above; conditions: 250 g ai/ha, Flood, applied to paddy water, evaluated after 13 days
# How it was run: as §2
# [15] = test system: ducksalad (Heteranthera limosa); test: as above; conditions: 250 g ai/ha, Flood, applied to paddy water, evaluated after 13 days
# How it was run: as §2
# [16] = test system: sedge, umbrella (small-flower umbrella sedge, Cyperus difformis); test: as above; conditions: 250 g ai/ha, Flood, applied to paddy water, evaluated after 13 days
# How it was run: as §2
# kochia (Bassia scoparia) [17] = test: Test A preemergence soil spray, visual injury rating 0-100; conditions: 10 days, 0 = no effect, 100 = complete control
# How it was run: as §1
# [18] = test system: ryegrass, Italian (italian ryegrass, Lolium multiflorum); test: as above; conditions: 10 days, 0 = no effect, 100 = complete control
# How it was run: as §1
# [19] = test system: ragweed (common ragweed, Ambrosia artemisiifolia); test: as above; conditions: 10 days, 0 = no effect, 100 = complete control
# How it was run: as §1
# [20] = test system: wheat (Triticum aestivum); test: as above; conditions: 10 days, 0 = no effect, 100 = complete control
# How it was run: as §1
# [21] = test system: palmer (palmer amaranth, palmer pigweed, Amaranthus palmeri); test: as above; conditions: 10 days, 0 = no effect, 100 = complete control
# How it was run: as §1
# [22] = test system: blackgrass (Alopecurus myosuroides); test: as above; conditions: 10 days, 0 = no effect, 100 = complete control
# How it was run: as §1
# soybean (Glycine max) [23] = test: as above; conditions: 10 days, 0 = no effect, 100 = complete control
# How it was run: as §1
# [24] = test system: barnyardgrass (Echinochloa crus-galli); test: as above; conditions: 10 days, 0 = no effect, 100 = complete control
# How it was run: as §1
# [25] = test system: green foxtail (Setaria viridis); test: as above; conditions: 10 days, 0 = no effect, 100 = complete control
# How it was run: as §1
# corn (Zea mays) [26] = test: as above; conditions: 10 days, 0 = no effect, 100 = complete control
# How it was run: as §1
# [27] = test system: oat, wild (wild oat, Avena fatua); test: as above; conditions: 10 days, 0 = no effect, 100 = complete control
# How it was run: as §1
# [28] = 31 g ai/ha, postemergence, 0 = no effect, 100 = complete control
# [29] = Postemergence, 125 g ai/ha, 0 is no effect, 100 is complete control
compound,measurement,setting,value
CC1(C(=O)NC2C=CC(C(=O)O)C2)CN(c2cc(Cl)cc(Cl)c2)C(=O)O1 (stereo not shown) [Compound 62],Kochia plant response rating (0-100),kochia (Bassia scoparia) [1]; [28],70
same,Kochia plant response rating (0 to 100 scale),kochia (Bassia scoparia) [1]; [29],80
same,"Ryegrass, Italian plant response rating (0-100)",[2]; [28],90
same,"Ryegrass, Italian plant response rating (0 to 100 scale)",[2]; [29],100
same,Galium plant response rating (0-100),[3]; [28],80
same,Galium plant response rating (0 to 100 scale),[3]; [29],80
same,Horseweed plant response rating (0-100),[4]; [28],50
same,Horseweed plant response rating (0 to 100 scale),[4]; [29],70
same,Ragweed plant response rating (0-100),[5]; [28],40
same,Ragweed plant response rating (0 to 100 scale),[5]; [29],90
same,Wheat plant response rating (0-100),[6]; [28],90
same,Wheat plant response rating (0 to 100 scale),[6]; [29],90
same,"Amaranth, Palmer plant response rating (0-100)",[7]; [28],90
same,"Amaranth, Palmer / Pigweed, Palmer plant response rating (0 to 100 scale)",[7]; [29],90
same,Blackgrass plant response rating (0-100),[8]; [28],90
same,Blackgrass plant response rating (0 to 100 scale),[8]; [29],100
same,Soybean plant response rating (0-100),soybean (Glycine max) [9]; [28],80
same,Soybean plant response rating (0 to 100 scale),soybean (Glycine max) [9]; [29],90
same,Barnyardgrass plant response rating (0-100),[10]; [28],100
same,Barnyardgrass plant response rating (0 to 100 scale),[10]; [29],100
same,"Foxtail, Green plant response rating (0-100)",[11]; [28],90
same,"Foxtail, Green plant response rating (0 to 100 scale)",[11]; [29],90
same,Corn plant response rating (0-100),corn (Zea mays) [12]; [28],100
same,Corn plant response rating (0 to 100 scale),corn (Zea mays) [12]; [29],100
same,"Oat, Wild plant response rating (0-100)",[13]; [28],90
same,"Oat, Wild plant response rating (0 to 100 scale)",[13]; [29],90
same,"Plant response rating, Rice (0 to 100 scale, 0 is no effect and 100 is complete control)",rice (Oryza sativa),15
same,"Plant response rating, Barnyardgrass (0 to 100 scale, 0 is no effect and 100 is complete control)",[14],50
same,"Plant response rating, Ducksalad (0 to 100 scale, 0 is no effect and 100 is complete control)",[15],90
same,"Plant response rating, Sedge, Umbrella (0 to 100 scale, 0 is no effect and 100 is complete control)",[16],98
same,Kochia plant response rating (0-100),kochia (Bassia scoparia) [17]; 31 g ai/ha,30
same,Kochia plant response rating (0 to 100 scale),kochia (Bassia scoparia) [17]; 125 g ai/ha,90
same,"Ryegrass, Italian plant response rating (0-100)",[18]; 31 g ai/ha,60
same,"Ryegrass, Italian plant response rating (0 to 100 scale)",[18]; 125 g ai/ha,80
same,Ragweed plant response rating (0-100),[19]; 31 g ai/ha,30
same,Ragweed plant response rating (0 to 100 scale),[19]; 125 g ai/ha,20
same,Wheat plant response rating (0-100),[20]; 31 g ai/ha,80
same,Wheat plant response rating (0 to 100 scale),[20]; 125 g ai/ha,90
same,"Amaranth, Palmer plant response rating (0-100)",[21]; 31 g ai/ha,90
same,"Amaranth, Palmer plant response rating (0 to 100 scale)",[21]; 125 g ai/ha,100
same,Blackgrass plant response rating (0-100),[22]; 31 g ai/ha,30
same,Blackgrass plant response rating (0 to 100 scale),[22]; 125 g ai/ha,70
same,Soybean plant response rating (0-100),soybean (Glycine max) [23]; 31 g ai/ha,0
same,Soybean plant response rating (0 to 100 scale),soybean (Glycine max) [23]; 125 g ai/ha,60
same,Barnyardgrass plant response rating (0-100),[24]; 31 g ai/ha,80
same,Barnyardgrass plant response rating (0 to 100 scale),[24]; 125 g ai/ha,100
same,"Foxtail, Green plant response rating (0-100)",[25]; 31 g ai/ha,80
same,"Foxtail, Green plant response rating (0 to 100 scale)",[25]; 125 g ai/ha,90
same,Corn plant response rating (0-100),corn (Zea mays) [26]; 31 g ai/ha,30
same,Corn plant response rating (0 to 100 scale),corn (Zea mays) [26]; 125 g ai/ha,80
same,"Oat, Wild plant response rating (0-100)",[27]; 31 g ai/ha,40
same,"Oat, Wild plant response rating (0 to 100 scale)",[27]; 125 g ai/ha,70
